Literature values as cited in patent publication US8933112B2, “Topical liquid to ameliorate pain and promote healing of burn-injured skin” (Memphaceuticals, LLC, priority 2012, dated 2015).

Columns and labels:
[1] = target: T1, nitric-oxide synthase in bovine brain (Bos taurus, UniProt A0A3Q1M6M2)
T1 construct: nitric-oxide synthase in bovine brain; host or cells: bovine brain

[2] = tested on: Ca^2+-dependent K^+ channels of human red blood cells, rat thymocytes, and Ehrlich ascites tumor cells; conditions: among tioconazole, miconazole, econazole, clotrimazole
[3] = tested on: Lewis lung carcinoma cells and CT-26 colon adenocarcinoma cells
human T lymphocytes = conditions: by blocking Ca2+-sensitive K+ channels
[4] = target: T2, 6-phosphofructo-1-kinase (PFK) (Oryctolagus cuniculus, UniProt P00511); conditions: independent of anti-calmodulin activity
T2 sequence (P00511 2-780 limits assumed): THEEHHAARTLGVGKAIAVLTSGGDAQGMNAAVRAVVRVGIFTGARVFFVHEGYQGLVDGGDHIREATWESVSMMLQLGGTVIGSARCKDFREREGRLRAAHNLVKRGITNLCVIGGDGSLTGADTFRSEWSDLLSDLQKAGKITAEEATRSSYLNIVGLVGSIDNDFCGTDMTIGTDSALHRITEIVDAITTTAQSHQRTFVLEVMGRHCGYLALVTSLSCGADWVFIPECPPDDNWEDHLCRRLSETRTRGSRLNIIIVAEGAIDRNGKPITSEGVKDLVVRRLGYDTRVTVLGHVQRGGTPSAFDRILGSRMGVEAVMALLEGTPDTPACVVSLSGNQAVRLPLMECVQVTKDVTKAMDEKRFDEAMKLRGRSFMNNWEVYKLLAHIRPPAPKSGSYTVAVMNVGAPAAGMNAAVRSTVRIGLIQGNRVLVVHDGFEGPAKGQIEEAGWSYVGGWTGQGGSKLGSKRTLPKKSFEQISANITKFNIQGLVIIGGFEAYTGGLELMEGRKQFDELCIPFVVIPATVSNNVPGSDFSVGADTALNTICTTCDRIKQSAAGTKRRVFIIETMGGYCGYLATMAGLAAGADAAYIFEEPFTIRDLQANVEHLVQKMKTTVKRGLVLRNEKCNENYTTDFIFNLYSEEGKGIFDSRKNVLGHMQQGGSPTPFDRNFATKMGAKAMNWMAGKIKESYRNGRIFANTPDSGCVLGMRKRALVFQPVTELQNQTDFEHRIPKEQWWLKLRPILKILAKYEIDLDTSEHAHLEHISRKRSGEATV

T1 sequence (A0A3Q1M6M2 1-1468): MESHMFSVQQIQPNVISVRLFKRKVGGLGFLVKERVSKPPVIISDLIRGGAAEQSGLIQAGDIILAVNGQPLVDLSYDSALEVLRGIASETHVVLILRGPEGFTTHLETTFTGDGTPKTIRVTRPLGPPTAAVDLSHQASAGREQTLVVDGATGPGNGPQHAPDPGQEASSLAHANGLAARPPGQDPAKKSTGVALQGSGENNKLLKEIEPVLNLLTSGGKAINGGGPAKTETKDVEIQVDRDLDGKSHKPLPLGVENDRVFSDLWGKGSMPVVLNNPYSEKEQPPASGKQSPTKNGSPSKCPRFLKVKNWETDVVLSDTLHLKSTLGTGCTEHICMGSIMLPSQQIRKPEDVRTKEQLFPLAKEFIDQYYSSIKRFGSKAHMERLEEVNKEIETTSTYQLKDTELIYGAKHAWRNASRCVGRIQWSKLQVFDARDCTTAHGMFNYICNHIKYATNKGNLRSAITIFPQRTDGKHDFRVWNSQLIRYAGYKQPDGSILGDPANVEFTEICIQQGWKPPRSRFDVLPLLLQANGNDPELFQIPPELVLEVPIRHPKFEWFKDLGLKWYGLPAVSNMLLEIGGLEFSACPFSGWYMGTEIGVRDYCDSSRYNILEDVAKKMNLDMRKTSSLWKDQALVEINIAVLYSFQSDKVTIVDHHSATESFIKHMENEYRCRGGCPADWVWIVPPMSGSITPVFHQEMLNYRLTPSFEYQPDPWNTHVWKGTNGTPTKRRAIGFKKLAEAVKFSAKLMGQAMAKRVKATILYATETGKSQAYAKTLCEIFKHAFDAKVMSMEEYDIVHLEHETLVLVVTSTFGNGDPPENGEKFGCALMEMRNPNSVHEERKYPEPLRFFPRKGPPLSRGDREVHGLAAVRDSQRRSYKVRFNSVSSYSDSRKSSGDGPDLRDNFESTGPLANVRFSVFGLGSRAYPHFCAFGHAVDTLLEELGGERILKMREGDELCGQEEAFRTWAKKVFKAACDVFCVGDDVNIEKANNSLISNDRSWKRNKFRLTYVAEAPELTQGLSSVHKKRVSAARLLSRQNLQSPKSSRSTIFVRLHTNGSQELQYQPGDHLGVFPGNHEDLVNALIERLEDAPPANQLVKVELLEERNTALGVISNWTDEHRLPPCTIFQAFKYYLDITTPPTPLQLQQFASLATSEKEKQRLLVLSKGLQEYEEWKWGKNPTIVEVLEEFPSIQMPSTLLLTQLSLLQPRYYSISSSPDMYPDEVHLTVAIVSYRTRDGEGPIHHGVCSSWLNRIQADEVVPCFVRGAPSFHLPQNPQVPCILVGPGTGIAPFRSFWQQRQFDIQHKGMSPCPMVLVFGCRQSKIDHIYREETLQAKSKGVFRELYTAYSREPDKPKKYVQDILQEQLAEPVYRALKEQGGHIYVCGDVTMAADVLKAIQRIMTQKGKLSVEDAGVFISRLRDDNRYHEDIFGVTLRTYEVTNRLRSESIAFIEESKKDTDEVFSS

Clc1ccccc1C(c1ccccc1)(c1ccccc1)n1ccnc1 [clotrimazole, 1-(o-chloro-α,α-diphenylbenzyl)imidazole]
citrulline formation by nitric-oxide synthase ([1]; bovine brain): inhibited citrulline formation
cytochrome-c reductase activity of nitric-oxide synthase ([1]; calmodulin-dependent fashion): inhibited the cytochrome-c reductase activity
inhibition of Ca2+-dependent K+ channels [2]: most potent inhibitor
levels of glucose 1,6-bisphosphate, fructose 1,6-bisphosphate, ATP, and cell viability [3]: significant reduction
activation of human T lymphocytes (human T lymphocytes): inhibits activation
inhibition of PFK [4]: directly inhibits
